Article PMC7580722, “Design of new disubstituted imidazo[1,2-b]pyridazine derivatives as selective Haspin inhibitors. Synthesis, binding mode and anticancer biological evaluation” (Journal of Enzyme Inhibition and Medicinal Chemistry, 2020)

Experiments:
HsHaspin = biological target: T1, HsHaspin (Homo sapiens, UniProt Q8TF76); assay: Recombinant Haspin kinase assay ([γ-33P]ATP, 15 µM ATP; some values ADP-Glo); type: biochemical; conditions: recombinant HsHaspin, in vitro
T1 construct: aa470-798; made in house; host or cells: E. coli
T1 sequence (Q8TF76 470-798): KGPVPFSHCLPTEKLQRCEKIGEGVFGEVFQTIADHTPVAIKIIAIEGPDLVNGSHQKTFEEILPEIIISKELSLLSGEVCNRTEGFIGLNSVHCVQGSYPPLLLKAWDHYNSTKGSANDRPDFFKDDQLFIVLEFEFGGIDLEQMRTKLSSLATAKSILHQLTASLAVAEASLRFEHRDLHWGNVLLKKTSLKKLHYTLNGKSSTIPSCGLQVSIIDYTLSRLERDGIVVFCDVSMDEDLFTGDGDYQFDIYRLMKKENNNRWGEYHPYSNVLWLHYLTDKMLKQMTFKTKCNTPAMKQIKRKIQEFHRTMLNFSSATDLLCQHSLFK
Procedure: (§1) Values are IC50 expressed in µM and calculated from dose–response curves (each point on the curves was performed in triplicate). Selectivity indexes (SI; in brackets) are calculated as follows: SI = IC50 kinase X/IC50 Haspin. ND: not determined. *IC50 values obtained using the ADP-Glo methodology (see Experimental section, Supplementary Material). […]
A, HsCdk9/Cyclin T). Native SscCK1δ /ε and SscGSK3α/β were purified from pig brain whereas HsPlk1, HsCdk1 and HsAurora B were purchased from ProQinase and SignalChem respectively. Kinase assays were performed in […]
mCi/ml; PerkinElmer) in a final volume of 30 µl as previously reported 51. After 30 min incubation at 30°C, the reaction mix was spotted onto GE healthcare P81 phosphocellulose paper using a FilterMate Harvester (PerkinElmer), and the filter was extensively washed with a 1% phosphoric acid solution. The wet filter-bound radioactivity was determined in the presence of 20 µl scintillation fluid (GE healthcare) with a TopCount® Scintillation and Luminescence Counter (PerkinElmer). IC50 values were calculated from dose-response curves […]
Kinase activities using the ADP-Glo methodology (ADP-Glo Kinase Assay; Promega) were assayed according to the assay described in Nguyen et al. 52 and Ibrahim et al. 53. […]

RnDYRK1A = assay: DYRK1A kinase assay; type: biochemical, Rn (rat); conditions: SI = IC50 kinase X/IC50 Haspin
Procedure: as §1
The reaction was carried out as described in general procedure A using 4 (0.150 g, 0.58 mmol, 1 equiv.), 2-aminopyrimidine-5-boronic acid (0.122 g, 0.88 mmol, 1.5 equiv.) and Cs2CO3 (0.575 g, 1.75 mmol, 3 equiv.). The […]
The reaction was carried out as described in general procedure A using 4 (0.100 g, 0.39 mmol, 1 equiv.), 1-naphthaleneboronic acid (0.083g, 0.47 mmol, 1.2 equiv.) and Cs2CO3 (0.381 g, 1.17 mmol, 3 equiv.). The crude […]
Recombinant protein kinases were expressed and purified from E. coli (HsHaspin kinase domain aa470-798, HsCdk5/p25, RnDYRK1A kinase domain aa1-499, HsPIM1, MmCLK1) or baculovirus/Sf9 cells (HsCdk2/Cyclin A, HsCdk9/Cyclin T). […] The wet filter-bound radioactivity was determined in the presence of 20 µl scintillation fluid (GE healthcare) with a TopCount® Scintillation and Luminescence Counter (PerkinElmer). IC50 values were calculated from dose-response curves […]

c1cc2[nH]ncc2cc1-c1cnc2ccc(OC[C@@H]3CNCCO3)nn12 [Compound 21]
IC50 (HsHaspin): 6 nM | selectivity for DYRK1A vs Haspin (RnDYRK1A): 50 fold
